Data reported in patent US20260297083A1, “SUBSTITUTED ACETYLENE COMPOUND DERIVATIVES AND THEIR PHARMACEUTICAL USE” (AVELOS THERAPEUTICS INC., priority 2023, published 2026).

How the values were obtained:
DLD-1 BRCA2(−/−) Cell = experiment: Cell viability assay (Resazurin) in DLD1-BRCA2 cells; type: cell-based; settings: Homo sapiens, DLD-1, 336 h, 14 days, 1,500 cells/well, final DMSO 1%
Experimental: DLD1-BRCA2 KG (Horizon Discovery, Cat #HD 105-007) cells and DLD1-parental cells were maintained in culture media (RPMI-1640 including 2 mM L-glutamin and 25 mM sodium bicarbonate, supplemented with 10% FBS), at 37° C. in a humidified atmosphere with 5% CO2. Cells were seeded at the final concentration of 1,500 cells/well (DLD1-BRCA2 KG) and 600 cells/well (DLD1-parental) in a 96-well plate. Four hours later, test compounds were added (the final concentration of DMSO was 1%) to the cells and media were replaced every 3-4 days for 14 days. To measure viability, cells were incubated in culture media supplemented with 0.1 mg/ml of Resazurin (Merck, Cat #R7017) for 4 hours. The fluorescence was measured at Ex/Em=560 nm/590 nm using EnSight multimode plate reader (Perkin Elmer). Data analysis and IC50 calculation was done using GraphPad Prism (Version 10.0.2).

[1] = target: T1, Polθ polymerase domain (amino acids 1792-2590) (Homo sapiens, UniProt O75417); experiment: Picogreen assay of Polθ polymerase activity; type: biochemical; settings: 12-point concentration response, 90 minutes incubation at room temperature, 8 nM Polθ in 2×polymerase mixture, read-out: PolQ IC50
T1 construct: 10×Histidine-SUMO (N, cleaved yes); made in house; host or cells: E. coli
T1 sequence (O75417 1792-2590): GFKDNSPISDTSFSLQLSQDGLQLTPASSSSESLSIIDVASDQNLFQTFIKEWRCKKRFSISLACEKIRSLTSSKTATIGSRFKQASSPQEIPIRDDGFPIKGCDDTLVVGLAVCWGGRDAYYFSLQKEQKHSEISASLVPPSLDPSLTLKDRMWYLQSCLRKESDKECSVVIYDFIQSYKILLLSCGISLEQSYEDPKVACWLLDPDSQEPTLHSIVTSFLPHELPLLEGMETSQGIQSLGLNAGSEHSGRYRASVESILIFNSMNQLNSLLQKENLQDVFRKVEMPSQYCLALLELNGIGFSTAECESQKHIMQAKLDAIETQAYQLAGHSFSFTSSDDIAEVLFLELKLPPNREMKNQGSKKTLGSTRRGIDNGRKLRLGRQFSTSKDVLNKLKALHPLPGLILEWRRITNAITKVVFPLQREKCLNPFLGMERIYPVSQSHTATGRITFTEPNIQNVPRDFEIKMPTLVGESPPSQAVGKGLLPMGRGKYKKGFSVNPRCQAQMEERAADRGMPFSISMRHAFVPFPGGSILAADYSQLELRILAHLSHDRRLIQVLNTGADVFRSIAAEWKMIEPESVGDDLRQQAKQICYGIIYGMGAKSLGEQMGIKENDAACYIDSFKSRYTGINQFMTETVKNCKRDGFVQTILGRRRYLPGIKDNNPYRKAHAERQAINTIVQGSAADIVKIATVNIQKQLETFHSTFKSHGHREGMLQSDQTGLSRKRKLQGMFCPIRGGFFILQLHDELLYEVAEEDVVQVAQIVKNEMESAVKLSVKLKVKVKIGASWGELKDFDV
Summary of the method: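 E. coli-expressed polymerase domain with His-SUMO tag removed; 2× enzyme mix (8 nM) combined with 2× substrate mix (100 nM annealed primer/template DNA, 40 uM dNTPs). Buffer 25 mM Tris-HCl pH 7.5, 12.5 mM NaCl, 0.5 mM MgCl2, 1 mM DTT. Reaction 90 min at room temperature, then EDTA/Picogreen stain read at 485/520 nm; 12-point IC50.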

SMILES	IC50 (DLD-1 BRCA2(−/−) Cell)	IC50 [1]
Cc1cc(C(F)(F)F)cc(N2C(=O)CC[C@H]2C(=O)N(CC#Cc2ccc(C(N)=O)nc2)c2ccc(F)c(C)c2)n1 [Example 12, (S)-5-(3-(N-(4-fluoro-3-methyl-phenyl)-1-(6-methyl-4-(trifluoro-methyl)pyridin-2-yl)-5-oxo-pyrrolidine-2-carboxamido)prop-1-yn-1-yl)picolinamide]	< 1000 nM	
Cc1cc(C(F)(F)F)cc(N2C(=O)CC[C@H]2C(=O)N(CC#Cc2ccc(N)nn2)c2ccc(F)c(Cl)c2)n1 [Example 3, (S)-N-(3-(6-aminopyridazin-3-yl)prop-2-yn-1-yl)-N-(3-chloro-4-fluorophenyl)-1-(6-methyl-4-(trifluoromethyl)pyridin-2-yl)-5-oxopyrrolidine-2-carboxamide]	< 1000 nM	
Cc1cc(C(F)(F)F)cc(N2C(=O)CC[C@H]2C(=O)N(CC#CCN2CCN(c3cnccn3)CC2)c2ccc(F)c(C)c2F)n1 [Example 15, (S)—N-(2,4-difluoro-3-methylphenyl)-1-(6-methyl-4-(trifluoromethyl)pyridin-2-yl)-5-oxo-N-(4-(4-(pyrazin-2-yl)piperazin-1-yl)but-2-yn-1-yl)pyrrolidine-2-carboxamide]	1100 to 5000 nM	
Cc1cc(C(F)(F)F)cc(N2[C@H](C(=O)N(CC#Cc3cncc(C(=O)N4CCNCC4)n3)c3ccc(F)c(C)c3)CCS2(=O)=O)n1 [Example 72, (S)-N-(4-fluoro-3-methylphenyl)-2-(6-methyl-4-(trifluoromethyl)pyridin-2-yl)-N-(3-(6-(piperazine-1-carbonyl)pyrazin-2-yl)prop-2-yn-1-yl)isothiazolidine-3-carboxamide 1,1-dioxide]	< 1000 nM	
Cc1ccc(F)c(N(CC#Cc2cnc(N3CCOCC3)cn2)C(=O)[C@@H]2CCS(=O)(=O)N2c2cc(C(F)(F)F)cc(C)n2)c1 [Example 40, (S)-N-(2-fluoro-5-methylphenyl)-2-(6-methyl-4-(trifluoromethyl)pyridin-2-yl)-N-(3-(5-morpholinopyrazin-2-yl)prop-2-yn-1-yl)isothiazolidine-3-carboxamide 1,1-dioxide]	1100 to 5000 nM	
Cc1cc(C(F)(F)F)cc(N2[C@H](C(=O)N(CC#Cc3cnc(N4C[C@@H](C)O[C@@H](C)C4)cn3)c3ccc(F)c(C)c3)CCS2(=O)=O)n1 [Example 47, (S)-N-(3-(5-((2S,6R)-2,6-dimethylmorpholino)pyrazin-2-yl)prop-2-yn-1-yl)-N-(4-fluoro-3-methylphenyl)-2-(6-methyl-4-(trifluoromethyl)pyridin-2-yl)isothiazolidine-3-carboxamide 1,1-dioxide]	1100 to 5000 nM	
Cc1cc(C(F)(F)F)cc(N2[C@H](C(=O)N(CC#Cc3cnc(S(N)(=O)=O)cn3)c3ccc(F)c(C)c3)CCS2(=O)=O)n1 [Example 65, (S)-N-(4-fluoro-3-methylphenyl)-2-(6-methyl-4-(trifluoromethyl)pyridin-2-yl)-N-(3-(5-sulfamoylpyrazin-2-yl)prop-2-yn-1-yl)isothiazolidine-3-carboxamide 1,1-dioxide]	< 1000 nM	
Cc1cc(C(F)(F)F)cc(N2[C@H](C(=O)N(CC#Cc3nccnc3C(N)=O)c3ccc(F)c(C)c3)CCS2(=O)=O)n1 [Example 64, (S)-N-(3-(3-carbamoylpyrazin-2-yl)prop-2-yn-1-yl)-N-(4-fluoro-3-methylphenyl)-2-(6-methyl-4-(trifluoromethyl)pyridin-2-yl)isothiazolidine-3-carboxamide 1,1-dioxide]	< 1000 nM	
Cc1cc(C(F)(F)F)cc(N2[C@H](C(=O)N(CC#Cc3cnc(N)cn3)c3ccc(F)c(C)c3)CCS2(=O)=O)n1 [Example 30, (S)-N-(3-(5-aminopyrazin-2-yl)prop-2-yn-1-yl)-N-(4-fluoro-3-methylphenyl)-2-(6-methyl-4-(trifluoromethyl)pyridin-2-yl)isothiazolidine-3-carboxamide 1,1-dioxide]	1100 to 5000 nM	
Cc1cc(C(F)(F)F)cc(N2[C@H](C(=O)N(CC#Cc3cnc(N4CCOCC4)c(C)n3)c3ccc(F)c(C)c3)CCS2(=O)=O)n1 [Example 45, (S)-N-(4-fluoro-3-methylphenyl)-2-(6-methyl-4-(trifluoromethyl)pyridin-2-yl)-N-(3-(6-methyl-5-morpholinopyrazin-2-yl)prop-2-yn-1-yl)isothiazolidine-3-carboxamide 1,1-dioxide]	< 1000 nM	
CCN1CCN(c2cnc(C#CCN(C(=O)[C@@H]3CCS(=O)(=O)N3c3cc(C(F)(F)F)cc(C)n3)c3ccc(F)c(C)c3)cn2)CC1 [Example 50, (S)-N-(3-(5-(4-ethylpiperazin-1-yl)pyrazin-2-yl)prop-2-yn-1-yl)-N-(4-fluoro-3-methylphenyl)-2-(6-methyl-4-(trifluoromethyl)pyridin-2-yl)isothiazolidine-3-carboxamide 1,1-dioxide]	< 1000 nM	
Cc1cc(C(F)(F)F)cc(N2C(=O)CC[C@H]2C(=O)N(CC#CCN2CCOCC2)c2ccc(F)c(C)c2F)n1 [Example 14, (S)—N-(2,4-difluoro-3-methylphenyl)-1-(6-methyl-4-(trifluoromethyl)pyridin-2-yl)-N-(4-morpholinobut-2-yn-1-yl)-5-oxopyrrolidine-2-carboxamide]	1100 to 5000 nM	
Cc1cc(C(F)(F)F)cc(N2[C@H](C(=O)N(CC#Cc3nccc(N4CCOCC4)n3)c3ccc(F)c(C)c3)CCS2(=O)=O)n1 [compound 80]		1 to 50 nM
Cc1cc(C(F)(F)F)cc(N2[C@H](C(=O)N(CC#Cc3cnc(N4C[C@H](C)N[C@@H](C)C4)cn3)c3ccc(F)c(C)c3)CCS2(=O)=O)n1 [compound 52]		1 to 50 nM
Cc1cc(C(F)(F)F)cc(N2[C@H](C(=O)N(CC#Cc3cnc(N4CC5CCC(C4)O5)cn3)c3ccc(F)c(C)c3)CCS2(=O)=O)n1 [compound 48]		1 to 50 nM
C=CC(=O)Nc1ccc(C#CCN(C(=O)[C@@H]2CCS(=O)(=O)N2c2cc(C(F)(F)F)cc(C)n2)c2ccc(F)c(C)c2)nc1 [compound 140, (S)-N-(3-(5-acrylamidopyridin-2-yl)prop-2-yn-1-yl)-N-(4-fluoro-3-methylphenyl)-2-(6-methyl-4-(trifluoromethyl)pyridin-2-yl)isothiazolidine-3-carboxamide 1,1-dioxide]		1 to 50 nM
CCN1CCN(c2cnc(C#CCN(C(=O)[C@@H]3CCS(=O)(=O)N3c3cc(C(F)(F)F)cc(C)n3)c3cc(C)ccc3F)cn2)CC1 [compound 51]		1 to 50 nM
Cc1cc(C(F)(F)F)cc(N2C(=O)CC[C@H]2C(=O)N(CC#Cc2ccc(N)nn2)c2ccc(F)c(Cl)c2F)n1 [compound 4]		1 to 50 nM
Cc1cc(C(F)(F)F)cc(N2[C@H](C(=O)N(CC#Cc3cncc(C(N)=O)n3)c3ccc(F)c(C)c3)CCS2(=O)=O)n1 [compound 63]		1 to 50 nM
Cc1cc(C(F)(F)F)cc(N2[C@H](C(=O)N(CC#Cc3cnc(C#N)cn3)c3ccc(F)c(C)c3)CCS2(=O)=O)n1 [compound 59]		> 101 nM
Cc1cc(C(F)(F)F)cc(N2[C@H](C(=O)N(CC#Cc3cnc(N4C5CCC4COC5)cn3)c3ccc(F)c(C)c3)CCS2(=O)=O)n1 [compound 49]		1 to 50 nM
Cc1cccc(N(CC#Cc2cnc(N)cn2)C(=O)[C@@H]2CN(C)S(=O)(=O)N2c2cc(C(F)(F)F)cc(C)n2)c1 [compound 108]		51 to 100 nM
Cc1cc(C(F)(F)F)cc(N2C(=O)CC[C@H]2C(=O)N(CC#Cc2cnc(N)cn2)c2ccc(F)c(C)c2)n1 [compound 6]		1 to 50 nM
Cc1cc(C(F)(F)F)cc(N2[C@H](C(=O)N(CC#Cc3ccc(N4CCOCC4)cn3)c3ccc(F)c(C)c3)CCS2(=O)=O)n1 [compound 84]		1 to 50 nM
Cc1cc(C(F)(F)F)cc(N2[C@H](C(=O)N(CC#Cc3cnc(C(N)=O)c(C#N)c3)c3ccc(F)c(C)c3)CCS2(=O)=O)n1 [compound 121]		1 to 50 nM
Cc1cc(C(F)(F)F)cc(N2[C@H](C(=O)N(CC#Cc3ccc(N4CCOCC4)nn3)c3ccc(F)c(C)c3)CCS2(=O)=O)n1 [compound 23]		1 to 50 nM
